According to patent publication US20090221624A1, “4-AMINOQUINOLINE COMPOUNDS FOR TREATING VIRUS-RELATED CONDITIONS” (priority 2005, published 2009):
Read-outs that look alike come from different tables or passages of the source.

Assays:
RSV minigenome = assay: RSV minigenome-dependent β-galactosidase expression assay (RSV β-Gal); assay type: cell-based, respiratory syncytial virus; details: for EC50: Secondary Data, RSV, read-out: RSV EC50; for RSV TI: therapeutic index CC50/EC50, RSV; for inhibition at 25 µM: primary screening, 25 μM final concentration, 24 hours, percent inhibition of viral replication, read-out: RSV Inh
WNV (WN-hRuPac cells) = assay: WNV antiviral activity, WN-hRuPac cells, Renilla luciferase; assay type: cell-based, West Nile virus; details: for EC50 / inhibition at 25 µM: West Nile virus; for EC50: Secondary Data, WNV, read-out: WNV EC50; for WNV TI: therapeutic index CC50/EC50, WNV; for inhibition at 25 µM: primary screening, 25 μM final concentration, 24 hours, percent inhibition of viral replication, read-out: WNV Inh
DNG (D2-hRuPac cells) = assay: DNG antiviral activity, D2-hRuPac cells, Renilla luciferase; assay type: cell-based, Dengue fever virus; details: Dengue virus, secondary screening
YFV (YF-hRuPac cells) = assay: microbe, parasite or virus in culture; assay type: cell-based, yellow fever virus; details: for EC50 / inhibition at 25 µM: Yellow fever virus; for EC50: read-out: YFV EC50; for inhibition at 25 µM: 24 h, read-out: YFV Inh
[1] = test system: viable cells (intracellular ATP)
EBOV minigenome = assay: microbe, parasite or virus in culture; assay type: cell-based, Ebola virus; details: for EC50: read-out: EBOV EC50; for inhibition at 25 µM: 24 h, read-out: EBOV Inh
SINV (SR19-F-luc cells) = assay: SINV antiviral activity, SR19-F-luc cells, Firefly luciferase; assay type: cell-based; details: Sindbis virus; for EC50: secondary screening, SR19-F-luc cells; for inhibition at 25 µM: primary screening, 25 μM final concentration, 24 hours, percent inhibition of viral replication, read-out: SINV Inh
[2] = test system: HCV replicon (Clone A cells, Huh7, subgenomic hepatits C virus RNA); assay: HCV Neo screening assay (HCV replicon, NPTII ELISA); assay type: cell-based, hepatitis C virus; details: for EC50 / inhibition at 25 µM: Hepatitis C virus, Huh-7; for EC50: Secondary Data, HCV; for inhibition at 25 µM: primary screening, 25 μM final concentration, 24 hours, percent inhibition of viral replication, read-out: HCV Inh; for HCV TI: therapeutic index CC50/EC50, HCV
[3] = human respiratory syncytial virus

Row | Compound | RSV TI (RSV minigenome) | EC50 (WNV (WN-hRuPac cells)) [µM] | WNV TI (WNV (WN-hRuPac cells)) | EC50 (DNG (D2-hRuPac cells)) [µM] | YFV TI (YFV (YF-hRuPac cells)) | EC50 (YFV (YF-hRuPac cells)) [µM] | EC50 (SINV (SR19-F-luc cells)) [µM] | CC50 (in vitro; HCV CC50) [µM] | EC50 (RSV minigenome; [3]) [µM] | inhibition at 25 µM (RSV minigenome; [3]) [%] | inhibition at 25 µM (WNV (WN-hRuPac cells)) [%] | inhibition at 25 µM (YFV (YF-hRuPac cells)) [%] | inhibition at 25 µM (EBOV minigenome; Zaire ebolavirus) [%] | EC50 (EBOV minigenome; Zaire ebolavirus) [µM] | inhibition at 25 µM (SINV (SR19-F-luc cells)) [%] | CC50 (in vitro; DNG CC50) [µM] | CC50 (in vitro; EBOV CC50) [µM] | CC50 (in vitro; RSV CC50) [µM] | CC50 (in vitro; SINV CC50) [µM] | CC50 (in vitro; WNV CC50) [µM] | further results
1 | COc1ccccc1Nc1cc(C)nc2c(C)c(C)cc(N)c12 [Compound 79] | 23.3 | 19 | 2.7 | 8.26 | 16.53 | 3.1 | 8.57 | ≥ 75 | – | – | – | – | – | – | – | – | – | – | – | – | EC50 (RSV minigenome): 2.2 µM; CC50 [1]: 51.2 µM; EBOV Inh (EBOV minigenome): 49.83%; EC50 (EBOV minigenome): 43.5 µM
2 | CCOc1ccc2nc(C)cc(Nc3ccc(N(C)C)cc3)c2c1 [Compound 57] | 6.8 | 3.6 | 8.62 | 6.28 | 11.24 | 2.76 | 3.97 | 4.23 | 4.56 | 97.9 | 85.7 | 95.8 | 70.8 | 75 | 87.7 | 31 | 31 | 31 | 31 | 31 | CC50 (in vitro; YFV CC50): 31 µM; EC50 [2]: 4.98 µM; inhibition at 25 µM [2]: 136%; HCV TI [2]: 0.85
3 | COc1ccc(Nc2cc(C)nc3c2ccc2ccccc23)cc1 [Compound 7] | 7.5 | ≥ 75 | – | 17 | – | ≥ 75 | ≥ 75 | 14 | 10 | 76.9 | 34.3 | 64.1 | 85.3 | 10.8 | 7.58 | ≥ 75 | ≥ 75 | ≥ 75 | ≥ 75 | ≥ 75 | CC50 (in vitro; YFV CC50): ≥ 75 µM; EC50 [2]: 5.87 µM; inhibition at 25 µM [2]: 104%; HCV TI [2]: 2.39
4 | CCOC(=O)c1cnc2ccccc2c1NCc1ccco1 [Compound 30] | 38.18 | 4.6 | 12.04 | 12 | 10.07 | 5.5 | ≥ 75 | ≥ 75 | 1.45 | 80.3 | 93.7 | 92.5 | 71 | 12.6 | -9.95 | 55.4 | 55.4 | 55.4 | 55.4 | 55.4 | CC50 (in vitro; YFV CC50): 55.4 µM; inhibition at 25 µM [2]: -18.1%
5 | CCOC(=O)c1ccc2ncc(C(=O)OCC)c(NCc3ccco3)c2c1 [Compound 13] | 12.07 | 4.78 | 7.4 | 10.5 | 3.98 | 8.88 | 44.5 | ≥ 75 | 2.93 | 92.1 | 98 | 89.5 | 59 | 6.03 | -12.1 | 35.4 | 35.4 | 35.4 | 35.4 | 35.4 | CC50 (in vitro; YFV CC50): 35.4 µM; inhibition at 25 µM [2]: 27.4%
